From patent publication US7569550B2, “14 and 15 membered ring compounds” (Glaxo Group Limited, priority 2003, dated 2009)
Counter-ions that a name gives are not always drawn. Like-named read-outs stand apart in the source and are kept apart here.

Legend:
Experiment in all cases: MIC, standard broth dilution method in microtitre
Format in all cases: cell-based
[1] = test system: E. faecalis ATCC 29212; conditions: Enterococcus faecalis, ATCC29212
Description: (§1) Using a standard broth dilution method in microtitre, compounds were tested for antibacterial activity. The compounds in the above examples gave minimum inhibitory concentrations (MICs) less than 1 microgram per millilitre against erythromycin-sensitive and erythromycin-resistant strains of Streptococcus pneumoniae and Streptococcus pyogenes.
(§2) In addition, the MIC (μg/ml) of test compounds against various organisms was determined including:
(§3) S. aureus Smith ATCC 13709, S. pneumoniae SP030, S. pyogenes 3565, E. faecalis ATCC 29212, H. influenzae ATCC 49247, M. catarrhalis ATCC 23246.

[2] = test system: H. influenzae ATCC 49247; conditions: Haemophilus influenzae, ATCC49247
Description: as §1, §2, §3

[3] = test system: M. catarrhalis ATCC 23246; conditions: Moraxella catarrhalis, ATCC23246
Description: as §1, §2, §3

[4] = test system: S. aureus Smith ATCC 13709; conditions: Staphylococcus aureus, ATCC13709
Description: as §1, §2, §3

[5] = test system: S. pneumoniae SP030; conditions: Streptococcus pneumoniae
Description: as §1, §2, §3

[6] = test system: S. pyogenes 3565; conditions: Streptococcus pyogenes
Description: as §1, §2, §3

[7] = test system: erythromycin resistant strains of Streptococcus pneumoniae
Description: as §1

[8] = test system: erythromycin resistant strains of Streptococcus pyogenes
Description: as §1

[9] = H. influenzae ATCC 49247, read-out: MIC

Row | Compound | MIC [1] [µg/mL] | MIC [2, 9] [µg/mL] | MIC [3] [µg/mL] | MIC [4] [µg/mL] | MIC [5] [µg/mL] | MIC [6] [µg/mL] | MIC [7] [µg/mL] | MIC [8] [µg/mL] | MIC [2] [µg/mL]
1 | CC[C@H]1OC(=O)[C@H](C)[C@@H](O[C@H]2C[C@@](C)(OC)[C@@H](OCCCNCCCc3ccc4c(c3C)c(=O)c(C(=O)O)cn4CC)[C@H](C)O2)[C@H](C)[C@@H](O[C@@H]2O[C@H](C)CC(N(C)C)[C@H]2O)[C@](C)(OC)C[C@@H](C)C(=O)[C@@H](C)[C@H]2NC(=O)O[C@@]21C (stereo partly drawn) [Example 23, 4″-O-{3-[3-(3-Carboxy-1-ethyl-5-methyl-4-oxo-1,4-dihydro-quinolin-6-yl)-propylamino]-propyl}-6-O-methyl-11-desoxy-11-(R)-amino-erythromycin A 11,12-carbamate formate] | ≤ 1 | ≤ 4 | ≤ 4 | ≤ 1 | ≤ 1 | ≤ 1 | ≤ 1 | ≤ 1 | –
2 | CC[C@@H]1OC(=O)[C@H](C)[C@H](O[C@@H]2C[C@](C)(OC)[C@H](OCCNCCNc3nc4c(cc3F)c(=O)c(C(=O)O)cn4CC)[C@H](C)O2)[C@@H](C)[C@H](O[C@H]2O[C@@H](C)C[C@@H](N(C)C)[C@H]2O)[C@](C)(OC)C[C@H](C)C(=O)[C@H](C)[C@H](O)[C@@]1(C)O [Example 18, 4″-O-{2-[2-(3-Carboxy-1-ethyl-6-fluoro-4-oxo-1,4-dihydro-[1,8]naphthyridin-7-ylamino)ethyl]-amino}-ethyl}-6-O-methyl-erythromycin A monoformate] | ≤ 1 | ≤ 4 | ≤ 4 | ≤ 1 | ≤ 1 | ≤ 1 | ≤ 1 | ≤ 1 | –
3 | CC[C@@H]1OC(=O)[C@H](C)[C@H](O[C@@H]2C[C@](C)(OC)[C@H](OCCCN(C)CCNc3cc4c(cc3F)c(=O)c(C(=O)O)cn4C3CC3)[C@H](C)O2)[C@@H](C)[C@H](O[C@H]2O[C@@H](C)C[C@@H](N(C)C)[C@H]2O)[C@](C)(OC)C[C@H](C)C(=O)[C@H](C)[C@H]2OC(=O)O[C@@]12C [Example 2, 4″-O-(3-{[2-(3-Carboxy-1-cyclopropyl-6-fluoro-4-oxo-1,4-dihydro-quinolin-7-ylamino)ethyl]-methylamino}-propyl)-6-O-methyl-erythromycin A 11,12-carbonate] | ≤ 1 | ≤ 4 | ≤ 4 | ≤ 1 | ≤ 1 | ≤ 1 | ≤ 1 | ≤ 1 | –
4 | CC[C@H]1OC(=O)[C@H](C)[C@@H](O[C@H]2C[C@@](C)(OC)[C@@H](OCCCN(C)CCCc3cc4c5c(c3)c(=O)c(C(=O)O)cn5CCC4)[C@H](C)O2)[C@H](C)[C@@H](O[C@@H]2O[C@H](C)C[C@H](N(C)C)[C@H]2O)[C@](C)(OC)C[C@@H](C)C(=O)[C@@H](C)[C@H]2NC(=O)O[C@@]21C [Example 31, 4″-O-{3-[[3-(2-Carboxy-1-oxo-6,7-dihydro-1H,5H-pyrido[3,2,1-ij]quinolin-9-yl)-propyl]-methylamino]-propyl}-6-O-methyl-11-desoxy-11-(R)-amino-erythromycin A 11,12-carbamate] | ≤ 1 | ≤ 4 | ≤ 4 | ≤ 1 | ≤ 1 | ≤ 1 | ≤ 1 | ≤ 1 | –
5 | CC[C@H]1OC(=O)[C@H](C)[C@@H](O[C@H]2C[C@@](C)(OC)[C@@H](OCCCN(C)CCSc3ccc4c(c3)c(=O)c(C(=O)O)cn4CC)[C@H](C)O2)[C@H](C)[C@@H](O[C@@H]2O[C@H](C)C[C@H](N(C)C)[C@H]2O)[C@](C)(OC)C[C@@H](C)C(=O)[C@@H](C)[C@H]2NC(=O)O[C@@]21C [Example 32, 4″-O-{3-[[2-(3-Carboxy-1-ethyl-4-oxo-1,4-dihydro-quinolin-6-ylsulfanyl)-ethyl]-methylamino]-propyl}-6-O-methyl-11-desoxy-11-(R)-amino-erythromycin A 11,12-carbamate] | ≤ 1 | ≤ 4 | ≤ 4 | ≤ 1 | ≤ 1 | ≤ 1 | ≤ 1 | ≤ 1 | –
6 | CC[C@@H]1OC(=O)[C@H](C)[C@H](O[C@@H]2C[C@](C)(OC)[C@H](OCCCN(C)CCCc3ccc4c(c3)c(=O)c(C(=O)O)cn4CC)[C@H](C)O2)[C@@H](C)[C@H](O[C@H]2O[C@@H](C)C[C@@H](N(C)C)[C@H]2O)[C@](C)(OC)C[C@H](C)C(=O)[C@H](C)[C@H]2OC(=O)O[C@@]12C [Example 13, 4″-O-(3-{[3-(3-Carboxy-1-ethyl-4-oxo-1,4-dihydro-quinolin-6-yl)propyl]-methylamino}-propyl)-6-O-methyl-erythromycin A 11,12-carbonate formate] | ≤ 1 | ≤ 4 | ≤ 4 | ≤ 1 | ≤ 1 | ≤ 1 | ≤ 1 | ≤ 1 | –
7 | CC[C@H]1OC(=O)[C@H](C)[C@@H](O[C@H]2C[C@@](C)(OC)[C@@H](OCCCN(C)CCOc3cc4c5c(c3)c(=O)c(C(=O)O)cn5CCC4)[C@H](C)O2)[C@H](C)[C@@H](O[C@@H]2O[C@H](C)C[C@H](N(C)C)[C@H]2O)[C@](C)(OC)C[C@@H](C)C(=O)[C@@H](C)[C@H]2NC(=O)O[C@@]21C [Example 28, 4″-O-{3-[[2-(2-Carboxy-1-oxo-6,7-dihydro-1H,5H-pyrido[3,2,1-ij]quinolin-9-yloxy)-ethyl]-methylamino]-propyl}-6-O-methyl-11-desoxy-11-(R)-amino-erythromycin A 11,12-carbamate formate] | ≤ 1 | ≤ 4 | ≤ 4 | ≤ 1 | ≤ 1 | ≤ 1 | ≤ 1 | ≤ 1 | –
8 | CC[C@H]1OC(=O)[C@H](C)[C@@H](O[C@H]2C[C@@](C)(OC)[C@@H](OCCCNCCNc3nc4c(cc3F)c(=O)c(C(=O)O)cn4CC)[C@H](C)O2)[C@H](C)[C@@H](O[C@@H]2O[C@H](C)CC(N(C)C)[C@H]2O)[C@](C)(OC)C[C@@H](C)C(=O)[C@@H](C)[C@H]2NC(=O)O[C@@]21C (stereo partly drawn) [Example 21, 4″-O-{3-[2-(3-Carboxy-1-ethyl-6-fluoro-4-oxo-1,4-dihydro-[1,8]naphthyridin-7-ylamino)-ethylamino]-propyl}-6-O-methyl-11-desoxy-11-(R)-amino-erythromycin A 11,12-carbamate formate] | ≤ 1 | ≤ 4 | ≤ 4 | ≤ 1 | ≤ 1 | ≤ 1 | ≤ 1 | ≤ 1 | –
9 | CC[C@@H]1OC(=O)[C@H](C)[C@H](O[C@@H]2C[C@](C)(OC)[C@H](OCCCNCCOc3cc4c5c(c3)c(=O)c(C(=O)O)cn5CCC4)[C@H](C)O2)[C@@H](C)[C@H](O[C@H]2O[C@@H](C)C[C@@H](N(C)C)[C@H]2O)[C@](C)(OC)C[C@H](C)C(=O)[C@H](C)[C@H]2OC(=O)O[C@@]12C [Example 6, 4″-O-{3-[2-(2-Carboxy-1-oxo-6,7-dihydro-1H,5H-pyrido[3,2,1-ij]quinoline-9-yloxy)-ethylamino]-propyl}-6-O-methyl-erythromycin A 11,12-carbonate bisformate] | ≤ 1 | ≤ 4 | ≤ 4 | ≤ 1 | ≤ 1 | ≤ 1 | ≤ 1 | ≤ 1 | –
10 | CC[C@H]1OC(=O)[C@H](C)[C@@H](O[C@H]2C[C@@](C)(OC)[C@@H](OCCCN(C)CCCc3cnc4c(c3)c(=O)c(C(=O)O)cn4CC)[C@H](C)O2)[C@H](C)[C@@H](O[C@@H]2O[C@H](C)C[C@H](N(C)C)[C@H]2O)[C@](C)(OC)C[C@@H](C)C(=O)[C@@H](C)[C@H]2NC(=O)O[C@@]21C [Example 30, 4″-O-{3-[[3-(3-Carboxy-1-ethyl-4-oxo-1,4-dihydro-6-[1,8]naphthryidinyl)-propyl]-methylamino]-propyl}-6-O-methyl-11-desoxy-11-(R)-amino-erythromycin A 11,12-carbamate] | ≤ 1 | ≤ 4 | ≤ 4 | ≤ 1 | ≤ 1 | ≤ 1 | ≤ 1 | ≤ 1 | –
11 | CC[C@@H]1OC(=O)[C@H](C)[C@H](O[C@H]2C[C@](C)(OC)[C@@H](OCCN(C)CCNc3cc4c(cc3F)c(=O)c(C(=O)O)cn4C3CC3)[C@@H](C)O2)[C@@H](C)[C@H](O[C@H]2O[C@@H](C)C[C@@H](N(C)C)[C@H]2O)[C@](C)(OC)C[C@H](C)C(=O)[C@H](C)[C@H]2OC(=O)O[C@@]12C [Example 1, 4″-O-(2-{[2-(3-Carboxy-1-cyclopropyl-6-fluoro-4-oxo-1,4-dihydro-quinolin-7-ylamino)-ethyl]-methylamino}-ethyl)-6-O-methyl-erythromycin A 11,12-carbonate bis trifluoroacetate] | ≤ 1 | – | ≤ 4 | ≤ 1 | ≤ 1 | ≤ 1 | ≤ 1 | ≤ 1 | ≤ 4
12 | CC[C@@H]1OC(=O)[C@H](C)[C@H](O[C@@H]2C[C@](C)(OC)[C@H](OCCCN(C)CCNc3nc4c(cc3F)c(=O)c(C(=O)O)cn4CC)[C@H](C)O2)[C@@H](C)[C@H](O[C@H]2O[C@@H](C)C[C@@H](N(C)C)[C@H]2O)[C@](C)(OC)C[C@H](C)C(=O)[C@H](C)[C@H]2OC(=O)O[C@@]12C [Example 15] | ≤ 1 | ≤ 4 | ≤ 4 | ≤ 1 | ≤ 1 | ≤ 1 | ≤ 1 | ≤ 1 | –
